Here are results for 18 compounds from patent US12371428B2 (Exelixis, Inc., priority 2019, dated 2025).

Structures are written as SMILES.

Experiment [1] deals with Human MER (residues 528-999) (Homo sapiens (Human), UniProt Q12866). In words: Human Mer kinase assay, HTRF KinEase (Example C-2). The format is biochemical. The note with it: protocol of Example C-2. The procedure, abridged: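 Recombinant MER 528-999 (1 ng/well) in buffer with 5 mM MgCl2 and 1 mM DTT was reacted with biotinylated peptide and ATP at Km (40 μM) for 60 min at room temperature. EDTA stop with SA-XL665 and Eu3+ TK antibody, then 665/620 nm HTRF read; IC50 from 4-parameter fit.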
Sequence of Human MER (residues 528-999) (Q12866 528-999): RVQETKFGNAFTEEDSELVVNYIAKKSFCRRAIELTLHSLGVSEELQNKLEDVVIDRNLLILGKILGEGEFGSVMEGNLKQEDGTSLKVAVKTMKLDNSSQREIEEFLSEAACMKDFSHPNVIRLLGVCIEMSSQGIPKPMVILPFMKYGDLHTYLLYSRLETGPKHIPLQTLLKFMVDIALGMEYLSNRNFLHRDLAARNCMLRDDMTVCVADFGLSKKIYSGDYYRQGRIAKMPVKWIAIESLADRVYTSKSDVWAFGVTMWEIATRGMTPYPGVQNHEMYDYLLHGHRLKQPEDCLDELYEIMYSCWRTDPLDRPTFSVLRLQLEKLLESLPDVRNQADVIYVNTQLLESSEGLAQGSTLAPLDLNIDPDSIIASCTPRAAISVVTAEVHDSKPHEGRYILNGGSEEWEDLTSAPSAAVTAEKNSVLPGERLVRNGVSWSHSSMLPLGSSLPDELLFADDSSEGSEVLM

Experiment [2] concerns the target Mer (phospho-Mer, MERTK-transfected 293A cells) (Homo sapiens (Human), UniProt Q12866). In words: Mer autophosphorylation ELISA in transient transfected 293A cells (Example H). The experiment is classed as cell-based. The note with it: cellular activity; Mer autophosphorylation ELISA in transient transfected 293A cells. The procedure, abridged: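 293A cells transiently transfected with human MERTK were treated 1 h in serum-free medium with an 8-point compound dilution (0.3% DMSO final). Lysates were assayed by phospho-Mer sandwich ELISA against a phospho-Mer standard; IC50 came from a 4-parameter logistic fit, normalised to DMSO (100%) and reference-inhibitor (0%) controls.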
Background: In an ELISA, binding on a coated surface is turned into a signal by an enzyme label.

Experiment [3] addresses Human MET (residues 956-1390) (Homo sapiens (Human), UniProt P08581). In words: Human Met kinase assay, HTRF KinEase (Example D-2). The format is biochemical. Conditions: protocol of Example D-2; read-out: c-Met IC50. The procedure, abridged:
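MET kinase domain (956-1390), 0.1 ng/well, in buffer with 5 mM MgCl2, 1 mM DTT and 1 mM MnCl2, phosphorylated a biotinylated peptide at ATP Km for 40 min at RT; 10 concentrations, 3% DMSO final. EDTA-stopped HTRF read after 60 min; IC50 from a 4-parameter logistic fit.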
(In general: In TR-FRET formats the signal depends on donor and acceptor labels being close together.)

Experiment [4] concerns the target KDR (phospho-KDR, VEGF165-stimulated HUVEC cells) (Homo sapiens (Human), UniProt P35968). Nature of the experiment: KDR autophosphorylation ELISA in HUVEC cells (Example G). The format is cell-based. Conditions: cellular activity; KDR autophosphorylation ELISA in HUVEC cells. The procedure, abridged:
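HUVEC cells, serum-starved 24 h, were treated 1 h with an 8-point compound dilution (0.3% DMSO) and then stimulated with 100 ng/mL VEGF165 for 5 min. Phospho-KDR in lysates was quantified by sandwich ELISA against a phospho-KDR standard. IC50 from a 4-parameter logistic fit, normalised between stimulated DMSO and unstimulated controls.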

Sequence of Human MET (residues 956-1390) (P08581 956-1390): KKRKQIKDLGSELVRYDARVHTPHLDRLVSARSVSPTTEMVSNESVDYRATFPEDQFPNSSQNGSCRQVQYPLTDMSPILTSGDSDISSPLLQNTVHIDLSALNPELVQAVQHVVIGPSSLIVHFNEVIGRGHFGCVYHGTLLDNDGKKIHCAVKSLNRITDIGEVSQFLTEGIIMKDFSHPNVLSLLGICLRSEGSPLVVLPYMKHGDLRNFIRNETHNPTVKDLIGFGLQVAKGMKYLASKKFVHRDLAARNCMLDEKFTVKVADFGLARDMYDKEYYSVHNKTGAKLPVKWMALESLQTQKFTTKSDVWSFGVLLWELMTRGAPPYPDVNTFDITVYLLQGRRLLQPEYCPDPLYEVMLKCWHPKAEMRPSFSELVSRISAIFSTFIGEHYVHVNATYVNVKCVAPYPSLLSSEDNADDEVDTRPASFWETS
Sequence of Mer (phospho-Mer, MERTK-transfected 293A cells) (Q12866 21-999): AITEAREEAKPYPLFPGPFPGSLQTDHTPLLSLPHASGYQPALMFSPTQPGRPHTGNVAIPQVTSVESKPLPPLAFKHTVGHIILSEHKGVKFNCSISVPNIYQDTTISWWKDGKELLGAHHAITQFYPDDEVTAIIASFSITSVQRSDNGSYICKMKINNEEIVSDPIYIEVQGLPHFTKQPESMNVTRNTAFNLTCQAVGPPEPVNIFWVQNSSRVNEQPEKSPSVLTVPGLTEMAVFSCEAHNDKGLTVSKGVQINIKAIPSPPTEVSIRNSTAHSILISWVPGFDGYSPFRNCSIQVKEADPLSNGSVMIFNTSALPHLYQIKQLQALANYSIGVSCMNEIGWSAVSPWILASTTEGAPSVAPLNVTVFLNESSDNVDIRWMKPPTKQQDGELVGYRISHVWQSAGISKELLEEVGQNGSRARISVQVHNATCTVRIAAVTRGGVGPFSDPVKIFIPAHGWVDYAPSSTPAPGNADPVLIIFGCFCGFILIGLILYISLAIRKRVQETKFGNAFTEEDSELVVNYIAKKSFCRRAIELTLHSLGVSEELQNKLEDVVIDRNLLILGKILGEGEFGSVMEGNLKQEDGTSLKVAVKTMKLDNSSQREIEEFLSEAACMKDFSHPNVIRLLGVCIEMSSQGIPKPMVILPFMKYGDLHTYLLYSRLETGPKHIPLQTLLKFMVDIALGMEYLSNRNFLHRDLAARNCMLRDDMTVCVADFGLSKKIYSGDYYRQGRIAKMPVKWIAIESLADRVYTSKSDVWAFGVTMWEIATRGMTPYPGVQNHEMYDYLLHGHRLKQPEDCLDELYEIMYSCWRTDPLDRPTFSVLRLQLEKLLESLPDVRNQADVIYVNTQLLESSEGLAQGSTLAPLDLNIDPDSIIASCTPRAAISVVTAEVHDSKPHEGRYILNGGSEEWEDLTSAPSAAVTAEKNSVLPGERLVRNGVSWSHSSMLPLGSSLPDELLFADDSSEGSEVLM
Sequence of KDR (phospho-KDR, VEGF165-stimulated HUVEC cells) (P35968 20-1356): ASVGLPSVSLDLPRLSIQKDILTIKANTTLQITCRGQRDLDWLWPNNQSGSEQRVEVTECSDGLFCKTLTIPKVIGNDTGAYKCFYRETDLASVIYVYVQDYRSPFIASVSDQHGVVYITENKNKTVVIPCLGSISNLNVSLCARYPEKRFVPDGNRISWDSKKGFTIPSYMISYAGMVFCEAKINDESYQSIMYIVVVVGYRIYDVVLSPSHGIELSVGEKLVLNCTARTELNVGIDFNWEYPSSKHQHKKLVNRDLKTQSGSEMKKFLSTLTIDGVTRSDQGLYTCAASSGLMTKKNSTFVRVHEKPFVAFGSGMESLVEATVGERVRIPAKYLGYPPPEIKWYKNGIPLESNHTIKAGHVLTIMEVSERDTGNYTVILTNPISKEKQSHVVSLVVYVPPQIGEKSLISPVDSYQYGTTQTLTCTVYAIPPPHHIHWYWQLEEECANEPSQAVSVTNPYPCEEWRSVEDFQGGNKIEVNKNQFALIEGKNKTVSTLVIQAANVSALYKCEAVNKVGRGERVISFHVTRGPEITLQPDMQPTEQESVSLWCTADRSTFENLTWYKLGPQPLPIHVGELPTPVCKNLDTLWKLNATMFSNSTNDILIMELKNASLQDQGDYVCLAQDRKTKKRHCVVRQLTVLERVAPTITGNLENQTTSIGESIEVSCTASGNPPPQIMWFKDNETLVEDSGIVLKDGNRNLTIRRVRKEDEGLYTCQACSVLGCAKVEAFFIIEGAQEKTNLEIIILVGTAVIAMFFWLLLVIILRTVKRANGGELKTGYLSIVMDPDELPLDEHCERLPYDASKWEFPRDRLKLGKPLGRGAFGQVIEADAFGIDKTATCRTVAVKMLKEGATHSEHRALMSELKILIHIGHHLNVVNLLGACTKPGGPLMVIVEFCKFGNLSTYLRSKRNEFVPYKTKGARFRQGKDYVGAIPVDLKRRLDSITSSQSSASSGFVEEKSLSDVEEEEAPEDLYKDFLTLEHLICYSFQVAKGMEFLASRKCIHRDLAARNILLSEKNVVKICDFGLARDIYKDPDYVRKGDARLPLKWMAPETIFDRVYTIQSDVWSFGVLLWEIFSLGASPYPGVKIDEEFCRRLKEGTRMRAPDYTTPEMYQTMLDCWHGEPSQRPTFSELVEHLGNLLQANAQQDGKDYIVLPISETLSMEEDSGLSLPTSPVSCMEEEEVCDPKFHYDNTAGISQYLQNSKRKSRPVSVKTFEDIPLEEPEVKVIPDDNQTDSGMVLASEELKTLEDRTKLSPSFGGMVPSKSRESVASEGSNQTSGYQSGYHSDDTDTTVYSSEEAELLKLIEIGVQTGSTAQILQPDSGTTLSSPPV

As for `COc1cc2nccc(Oc3ccc(NC(=O)c4nn(C)c(C)c(-c5ccc(F)cc5C)c4=O)cc3F)c2nc1OC` [Compound 512, N-[4-[(6,7-dimethoxy-1,5-naphthyridin-4-yl)oxy]-3-fluorophenyl]-5-(4-fluoro-2-methylphenyl)-1,6-dimethyl-4-oxopyridazine-3-carboxamide], the IC50 in experiment [1], in experiment [2], in experiment [3] and in experiment [4] was below 100 nM each time.
As for `COc1cnc2c(Oc3ccc(NC(=O)c4nn(C)c(C)c(-c5ccc(F)cc5C)c4=O)cc3F)ccnc2c1` [Compound 513, N-[3-fluoro-4-[(7-methoxy-1,5-naphthyridin-4-yl)oxy]phenyl]-5-(4-fluoro-2-methylphenyl)-1,6-dimethyl-4-oxopyridazine-3-carboxamide], the IC50 in experiment [1], in experiment [2], in experiment [3] and in experiment [4] was below 100 nM each time.
As to `COc1cnc2c(Oc3ccc(NC(=O)c4nn(C)c(C)c(-c5ccc(F)cc5C)c4=O)cc3)ccnc2c1` [Compound 514, 5-(4-fluoro-2-methylphenyl)-N-[4-[(7-methoxy-1,5-naphthyridin-4-yl)oxy]phenyl]-1,6-dimethyl-4-oxopyridazine-3-carboxamide], the IC50 in experiment [1], in experiment [2], in experiment [3] and in experiment [4] was below 100 nM each time.
Turning to `COc1cnc2c(Oc3ccc(NC(=O)c4nnc(C)c(-c5ccc(F)cc5)c4OC)cc3)ccnc2c1` [Compound 515, 5-(4-fluorophenyl)-4-methoxy-N-[4-[(7-methoxy-1,5-naphthyridin-4-yl)oxy]phenyl]-6-methylpyridazine-3-carboxamide], the IC50 in experiment [1], in experiment [2], in experiment [3] and in experiment [4] was below 100 nM each time.
Turning to `COCc1nc(C)c(-c2ccc(F)cc2C)c(O)c1C(=O)Nc1ccc(Oc2ccnc3ccc(OC)nc23)cc1` [Compound 516, 5-(4-fluoro-2-methylphenyl)-4-hydroxy-2-(methoxymethyl)-N-[4-[(6-methoxy-1,5-naphthyridin-4-yl)oxy]phenyl]-6-methylpyridine-3-carboxamide], the IC50 – broadly, the concentration that gives 50% inhibition – in experiment [1] was below 100 nM; in experiment [2] it was below 100 nM; in experiment [3], below 100 nM; in experiment [4], 100 to 300 nM.
With `COc1cc2nccc(Oc3ccc(NC(=O)c4nn(C)c(C)c(-c5ccc(F)cc5C)c4=O)cc3)c2nc1OC` [Compound 517, N-[4-[(6,7-dimethoxy-1,5-naphthyridin-4-yl)oxy]phenyl]-5-(4-fluoro-2-methylphenyl)-1,6-dimethyl-4-oxopyridazine-3-carboxamide], the IC50 in experiment [1], in experiment [2], in experiment [3] and in experiment [4] was below 100 nM in each case.
Regarding `COc1cc2nccc(Oc3ccc(NC(=O)c4c(C)nc(C)c(-c5ccc(F)cc5CO)c4O)cc3F)c2nc1OC` [Compound 518, N-[4-[(6,7-dimethoxy-1,5-naphthyridin-4-yl)oxy]-3-fluorophenyl]-5-[4-fluoro-2-(hydroxymethyl]phenyl]-4-hydroxy-2,6-dimethylpyridine-3-carboxamide], the IC50 in experiment [1], in experiment [2], in experiment [3] and in experiment [4] was below 100 nM throughout.
On to `COc1cc2nccc(Oc3ccc(NC(=O)c4cc(C)nn(-c5ccc(F)cc5)c4=O)cc3F)c2nc1OC` [Compound 519, N-[4-[(6,7-dimethoxy-1,5-naphthyridin-4-yl)oxy]-3-fluorophenyl]-2-(4-fluorophenyl)-6-methyl-3-oxopyridazine-4-carboxamide], for which the IC50 in experiment [1] was below 100 nM; in experiment [2], below 100 nM; in experiment [3], 100 to 300 nM; in experiment [4] it was below 100 nM.
Consider `COc1cc2nccc(Oc3ccc(NC(=O)c4cc(C)nn(-c5ccc(F)cc5)c4=O)cc3)c2nc1OC` [Compound 520, N-[4-[(6,7-dimethoxy-1,5-naphthyridin-4-yl)oxy]phenyl]-2-(4-fluorophenyl)-6-methyl-3-oxopyridazine-4-carboxamide], for which the IC50 in experiment [1], in experiment [2], in experiment [3] and in experiment [4] was below 100 nM in each case.
As for `COc1cnc2c(Oc3ccc(NC(=O)c4cc(C)nn(-c5ccc(F)cc5)c4=O)cc3F)ccnc2c1` [Compound 521, N-[3-fluoro-4-[(7-methoxy-1,5-naphthyridin-4-yl)oxy]phenyl]-2-(4-fluorophenyl)-6-methyl-3-oxopyridazine-4-carboxamide], the IC50 is below 100 nM in experiment [1], above 300 nM in experiment [2], below 100 nM in experiment [3] and above 300 nM in experiment [4].
Turning to `COc1cnc2c(Oc3ccc(NC(=O)c4cc(C)nn(-c5ccc(F)cc5)c4=O)cc3)ccnc2c1` [Compound 522, 2-(4-fluorophenyl)-N-[4-[(7-methoxy-1,5-naphthyridin-4-yl)oxy]phenyl]-6-methyl-3-oxopyridazine-4-carboxamide], the IC50 in experiment [1] was 100 to 300 nM; in experiment [2], above 300 nM; in experiment [3] it was 100 to 300 nM; in experiment [4] it was above 300 nM.
In the case of `COc1cc2nccc(Oc3ccc(NC(=O)c4c(C)n(C)c(C)c(-c5ccc(F)cc5)c4=O)cc3)c2nc1OC` [Compound 523, N-[4-[(6,7-dimethoxy-1,5-naphthyridin-4-yl)oxy]phenyl]-5-(4-fluorophenyl)-1,2,6-trimethyl-4-oxopyridine-3-carboxamide], the IC50 is below 100 nM in experiment [1], below 100 nM in experiment [2], below 100 nM in experiment [3] and above 300 nM in experiment [4].
On to `COc1cc2nccc(Oc3ccc(NC(=O)c4c(C)c(C)nn(-c5ccc(F)cc5)c4=O)cc3F)c2nc1OC` [Compound 524, N-[4-[(6,7-dimethoxy-1,5-naphthyridin-4-yl)oxy]-3-fluorophenyl]-2-(4-fluorophenyl)-5,6-dimethyl-3-oxopyridazine-4-carboxamide], for which the IC50 was below 100 nM in experiment [1], below 100 nM in experiment [2], 100 to 300 nM in experiment [3] and 100 to 300 nM in experiment [4].
For the compound `COCc1nc(C)c(-c2ccc(F)cc2)c(O)c1C(=O)Nc1ccc(Oc2ccnc3ccc(OC)cc23)c(F)c1` [Compound 525, N-[3-fluoro-4-(6-methoxyquinolin-4-yl)oxyphenyl]-5-(4-fluorophenyl)-4-hydroxy-2-(methoxymethyl)-6-methylpyridine-3-carboxamide], the IC50 is below 100 nM in experiment [1], below 100 nM in experiment [2], 100 to 300 nM in experiment [3] and below 100 nM in experiment [4].
`CCc1nc(C)c(-c2ccc(F)cc2C)c(O)c1C(=O)Nc1ccc(Oc2ccnc3ccc(OC)nc23)cc1` [Compound 526, 2-ethyl-5-(4-fluoro-2-methylphenyl)-4-hydroxy-N-[4-[(6-methoxy-1,5-naphthyridin-4-yl)oxy]phenyl]-6-methylpyridine-3-carboxamide]: the IC50 in experiment [1] was below 100 nM; in experiment [2], below 100 nM; in experiment [3], 100 to 300 nM; in experiment [4], below 100 nM.
For the compound `COc1cnc2c(Oc3ccc(NC(=O)c4ccnn(-c5ccc(F)cc5C)c4=O)cc3)ccnc2c1` [Compound 530, 2-(4-fluoro-2-methylphenyl)-N-[4-[(7-methoxy-1,5-naphthyridin-4-yl)oxy]phenyl]-3-oxopyridazine-4-carboxamide], the IC50 in experiment [1] is 100 to 300 nM; in experiment [2] it was below 100 nM; in experiment [3], 100 to 300 nM; in experiment [4], below 100 nM.
`COc1cc2nccc(Oc3ccc(NC(=O)c4cnc(SC(C)C)n(-c5ccc(F)cc5)c4=O)cc3)c2cc1OC` [Compound 539, N-[4-(6,7-dimethoxyquinolin-4-yl)oxyphenyl]-1-(4-fluorophenyl)-6-oxo-2-propan-2-ylsulfanylpyrimidine-5-carboxamide]: the IC50 is below 100 nM in experiment [1], below 100 nM in experiment [2], 100 to 300 nM in experiment [3] and above 300 nM in experiment [4].
For `COc1cc2nccc(Oc3ccc(NC(=O)c4cnc(C)c(-c5ccc(F)cc5)c4O)cc3F)c2nc1C` [Compound 541, N-[3-fluoro-4-[(7-methoxy-6-methyl-1,5-naphthyridin-4-yl)oxy]phenyl]-5-(4-fluorophenyl)-4-hydroxy-6-methylpyridine-3-carboxamide], the IC50 in experiment [1], in experiment [2], in experiment [3] and in experiment [4] was below 100 nM each time.
